Calls of active or inactive are those of the source.
Experiments:
NADPH oxidase 1 = target: T1, NADPH oxidase 1 (Homo sapiens, UniProt Q9Y5S8); type: functional, cell-based;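 note: Cell-based assay with luminescence read-out, IC50 derived from inhibitor dose-response curves; intracellular ROS from endogenous NOX1 in intact HT29 colon cancer cells; potency of inhibitors that lower the ROS luminescence signal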
T1 sequence (Q9Y5S8 whole entry): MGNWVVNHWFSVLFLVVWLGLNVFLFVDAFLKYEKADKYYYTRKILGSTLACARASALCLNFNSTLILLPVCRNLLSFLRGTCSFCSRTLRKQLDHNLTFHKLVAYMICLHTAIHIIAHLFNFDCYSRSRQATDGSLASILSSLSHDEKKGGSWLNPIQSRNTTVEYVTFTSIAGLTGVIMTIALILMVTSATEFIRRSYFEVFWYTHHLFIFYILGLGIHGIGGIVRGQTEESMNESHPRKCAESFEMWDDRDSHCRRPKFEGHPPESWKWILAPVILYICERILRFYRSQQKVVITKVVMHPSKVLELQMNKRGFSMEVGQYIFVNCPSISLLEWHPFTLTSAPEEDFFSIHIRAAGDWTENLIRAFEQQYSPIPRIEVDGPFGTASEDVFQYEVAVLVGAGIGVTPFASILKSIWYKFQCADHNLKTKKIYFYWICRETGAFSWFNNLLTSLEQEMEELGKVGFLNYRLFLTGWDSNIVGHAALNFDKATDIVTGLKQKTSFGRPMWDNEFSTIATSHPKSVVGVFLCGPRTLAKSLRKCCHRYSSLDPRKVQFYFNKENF

[1] = Luminescence Cell-Based Dose Response to Identify Activators of 5'UTR Stem-Loop Driven Prion Protein mRNA Translation in H4-C Neuroglioblastoma Cells. [Related pubchem assays: 1829 (Project Summary), 1814 (Primary HTS)]; type: functional
[2] = Luminescence Cell-Based Dose Confirmation HTS to Identify Activators of 5'UTR Stem-Loop Driven Alpha-Synuclein mRNA Translation in H4 Neuroglioblastoma Cells. [Related pubchem assays: 1829 (Project Summary), 1814 (Primary HTS)]; type: functional
[3] = insulin promoter down-regulators in MIN6 cells, imaging, high-content screening, mouse beta cells (AID 1628); type: functional
[4] = Luminescence Cell-Based Dose Response HTS to Identify Activators of Luciferase Translation or Activity in H4 […] Cells. [Related pubchem assays: 1829 (Project Summary), 1814 (Primary HTS)]; type: functional
BJ [5] = assay: cytotoxicity toward BJ-TERT fibroblasts, dose response, cell-based, RAS-independent, luminescence (AID 1933); type: functional; settings: Homo sapiens
[6] = cytotoxicity in MIN6 insulinoma cells, dose response, cytotoxicity control, cell-based, mouse insulinoma (AID 2122); type: functional;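 note: confirmatory high-throughput counterscreen run to flag cytotoxic compounds; mouse MIN-6 beta cells carrying an insulin promoter eGFP reporter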
BJ [7] = assay: cells; type: functional, cell-based; settings: Homo sapiens
[8] = Luminescence Cell-Based Dose Response to Identify Activators of Luciferase Translation or Activity in H4-C Neuroglioblastoma Cells. [Related pubchem assays: 1829 (Project Summary), 1814 (Primary HTS)]; type: functional
[9] = Luminescence-based dose response cell-based high throughput screening assay for cytotoxic compounds using the IEC-6 intestinal epithelial cell line. [Related pubchem assays: 1858 (Summary AID.), 1825 (Counterscreen.), 1907 (Confirmation screen.)]; type: functional
[10] = Luminescence Cell-Based Dose Confirmation to Identify Activators of 5'UTR Stem-Loop Driven Alpha-Synuclein mRNA Translation in H4 Neuroglioblastoma Cells. [Related pubchem assays: 1829 (Project Summary), 1814 (Primary HTS)]; type: functional
BJ [11] = assay: cytotoxicity toward BJ-TERT-LT-ST fibroblasts, dose response, cell-based, RAS-independent, luminescence (AID 1935); type: functional; settings: Homo sapiens;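 note: BJ fibroblasts immortalized with TERT plus LT and ST oncogenes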
[12] = cytotoxicity toward DRD oncogenic fibroblasts, dose response, cell-based, non-viral oncogenic, luminescence (AID 1934); type: functional; settings: Homo sapiens
BJ [13] = assay: cytotoxicity toward Ras-transformed BJeLR fibroblasts, dose response, cell-based, alamar blue fluorescence, cherrypicked samples (AID 2631); type: functional; settings: Homo sapiens;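 note: confirmatory dose-response assay in RAS-dependent BJ fibroblasts engineered with TERT, LT and ST, with cytotoxicity read by fluorescence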
[14] = Shn3 3'UTR reporter inhibitors, dose response, cell-based, Clone20 osteoblasts, firefly luciferase, cherry-picked (AID 624132); type: functional;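 note: firefly luciferase luminescence from reporter carrying the Shn3 3'UTR in osteoblasts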
[15] = control 3'UTR Renilla luciferase suppression, dose response, counter-screen for Shn3 inhibitor project, cell-based, Clone20-Shn3RL, cherry-picked (AID 624133); type: functional
[16] = inhibitors of HIV Env-driven cell fusion, dose response, cherry-pick (AID 652057); type: functional, cell-based
[17] = CEM21 lymphoblast cell cytotoxicity, dose response, cytotoxicity control for viral fusion inhibitor project, CellTiter-Glo luminescence, cherry-picked (AID 652042); type: functional, cell-based;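 note: potency for signal decrease meaning cytotoxicity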
[18] = ZM109 Env clade C HIV-1 fusion inhibitors, dose response, HeLa effector, CEM target cells, luciferase, cherry-pick (AID 652058); type: functional, cell-based
[19] = off-target signal loss in HeLa-CEM21 co-culture – HeLa F-luc CTL cells, cherry-picked, counter-screen for HIV-1 Env fusion inhibitor project, dose response (AID 652040); type: functional, cell-based;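 note: potency for signal decrease marking cytotoxic or nonspecific inhibition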
[20] = inhibitors of clade B AD8 Env fusion, dose response, cell-based, cherry-pick (AID 652062); type: functional;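 note: luciferase signal from cell-cell fusion driven by HIV-1 clade B AD8 Env; potency is for inhibitors of fusion seen as a drop in luminescence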
[21] = target: COUP transcription factor 2 (Homo sapiens, UniProt P24468); assay: Luminescence-based cell-based high throughput dose response assay to identify inhibitors of COUP-TFII (NR2F2).; type: functional;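 note: HEK293 cells transiently cotransfected with COUP-TFII expression vector and reporter; luciferase reporter luminescence driven by COUP-TFII from the pX2-168 reporter plasmid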
Chain of COUP transcription factor 2 (P24468 whole entry): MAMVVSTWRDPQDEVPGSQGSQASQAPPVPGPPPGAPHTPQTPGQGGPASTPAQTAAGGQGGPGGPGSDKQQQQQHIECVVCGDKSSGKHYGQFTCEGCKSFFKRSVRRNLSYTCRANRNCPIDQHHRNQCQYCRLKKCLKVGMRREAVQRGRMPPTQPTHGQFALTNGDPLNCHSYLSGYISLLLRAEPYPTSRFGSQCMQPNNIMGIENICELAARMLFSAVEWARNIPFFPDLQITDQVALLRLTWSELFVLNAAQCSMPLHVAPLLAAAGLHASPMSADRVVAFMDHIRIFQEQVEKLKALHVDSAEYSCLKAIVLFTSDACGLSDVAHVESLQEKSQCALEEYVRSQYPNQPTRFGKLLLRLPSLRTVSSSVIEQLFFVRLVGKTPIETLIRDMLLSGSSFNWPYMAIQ

[22] = target: Induced myeloid leukemia cell differentiation protein Mcl-1 (Homo sapiens, UniProt Q07820); assay: MCL1-BIM BH3 interaction inhibitors, dose response, biochemical, fluorescence polarization, BIM-BH3 peptide, 1536-well (AID 2217)
Chain of Induced myeloid leukemia cell differentiation protein Mcl-1 (Q07820 whole entry): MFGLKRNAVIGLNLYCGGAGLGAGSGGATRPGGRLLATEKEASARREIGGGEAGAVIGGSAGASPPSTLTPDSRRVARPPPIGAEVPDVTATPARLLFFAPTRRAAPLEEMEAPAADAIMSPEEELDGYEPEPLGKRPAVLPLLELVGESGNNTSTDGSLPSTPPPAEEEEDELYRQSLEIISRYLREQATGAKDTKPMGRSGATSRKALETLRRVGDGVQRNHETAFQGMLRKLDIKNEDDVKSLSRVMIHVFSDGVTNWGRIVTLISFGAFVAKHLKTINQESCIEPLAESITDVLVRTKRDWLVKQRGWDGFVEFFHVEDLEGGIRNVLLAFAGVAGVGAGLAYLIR

Bcl-2-like protein 1 = Bcl-2-like protein 1 (Homo sapiens, UniProt Q07817); assay: BCL-XL inhibitors, dose response, selectivity assay for MCL1 inhibitor project, biochemical, fluorescence polarization, 1536-well (AID 2218)
Chain of Bcl-2-like protein 1 (Q07817 whole entry): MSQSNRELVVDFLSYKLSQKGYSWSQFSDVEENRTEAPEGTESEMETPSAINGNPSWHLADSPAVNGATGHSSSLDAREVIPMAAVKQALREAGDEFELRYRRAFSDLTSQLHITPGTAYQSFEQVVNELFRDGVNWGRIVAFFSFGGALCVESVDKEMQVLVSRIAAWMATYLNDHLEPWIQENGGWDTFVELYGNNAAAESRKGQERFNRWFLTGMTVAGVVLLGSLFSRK

Caspase-6 = target: T2, Caspase-6 (Homo sapiens, UniProt P55212); assay: human caspase-6 inhibitors, dose response, biochemical, VEID-R110 fluorescence, cherry-pick (AID 720632)
T2 sequence (P55212 whole entry): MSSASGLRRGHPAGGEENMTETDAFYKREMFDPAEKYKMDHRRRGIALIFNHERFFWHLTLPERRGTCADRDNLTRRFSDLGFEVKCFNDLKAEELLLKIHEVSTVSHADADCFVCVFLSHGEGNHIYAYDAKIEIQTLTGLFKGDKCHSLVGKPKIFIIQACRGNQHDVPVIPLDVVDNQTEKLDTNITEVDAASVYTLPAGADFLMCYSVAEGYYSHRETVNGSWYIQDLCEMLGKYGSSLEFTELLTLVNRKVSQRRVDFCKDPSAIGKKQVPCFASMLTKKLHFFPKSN

O=C(Nc1ccc(NC(=O)c2ccccc2O)cc1)Nc1ccc(OCc2ccccc2)cc1
IC50 (NADPH oxidase 1): > 17 µM (not active)

O=C1N(c2ccccc2)C[C@@H]2C[C@@H](c3cc4ccccc4o3)N3CCC[C@@]123
EC50 [1]: 0.239 µM (inconclusive)
EC50 [2]: > 120 µM (not active)
IC50 [3]: 0.441 µM (active)
EC50 [4]: > 120 µM (not active)
EC50 (BJ [5]): 1.37 µM (active)
IC50 [6]: 0.535 µM (active)
EC50 (BJ [7]): 2.35 µM (active)
EC50 [8]: 0.266 µM (inconclusive)
IC50 [9]: 0.189 µM (active)
EC50 [10]: 1.6 µM (active)
EC50 (BJ [11]): 0.318 µM (inconclusive)
EC50 [12]: 0.48 µM (active)
EC50 (BJ [13]): 0.205 µM (active)
AC50 [14]: 0.536 µM (active)
AC50 [15]: 29.9 µM (active)
AC50 [16]: 1.01 µM (active)
AC50 [17]: 0.534 µM (active)
AC50 [18]: 1.3 µM (active)
AC50 [19]: 1.26 µM (active)
AC50 [20]: 1.27 µM (active)
IC50 [21]: 0.737 µM (active)

C/C(=N\NC(=O)c1cc(O)ccc1O)c1cccc(NC(=O)c2ccc(Cl)cc2)c1
IC50 [22]: 59.1 µM (not active)
IC50 (Bcl-2-like protein 1): > 109 µM (not active)
AC50 (Caspase-6): 8.91 µM (active)
